pIC50: −log10 of the molar value.
Assays:
PI3Kα = PI3Kα (Homo sapiens, UniProt P42336); assay: PI3K biochemical assay (luciferase-luciferin ATP consumption); conditions: 1.5 nM enzyme, 1 μM ATP, 10 μM PIP2; read-out: IC50 for PI3Kα in this assay
Method: PI3Kα activity is measured as the percent of ATP consumed following the kinase reaction using luciferase-luciferin-coupled chemiluminescence. Reactions were conducted in 384-well white, medium binding microtiter plates (Greiner). Kinase reactions were initiated by combining test compounds, ATP, substrate (PIP2), and kinase in a 20 μL volume in a buffer solution. The standard PI3Kalpha assay buffer is composed 50 mM Tris, pH 7.5, 1 mM EGTA, 10 mM MgCl2, 1 mM DTT and 0.03% CHAPS. The standard assay concentrations for enzyme, ATP, and substrate are 1.5 nM, 1 μM, and 10 μM, respectively. The reaction mixture was incubated at ambient temperature for approximately 2 h. Following the kinase reaction, a 10 μL aliquot of luciferase-luciferin mix (Promega Kinase-Glo) was added and the chemiluminescence signal measured using a Victor2 plate reader (Perkin Elmer). Total ATP consumption was limited to 40-60% and IC50 values of control compounds correlate well with literature references. Substituting PI3Kα with PI3Kβ, PI3Kγ, or PI3Kδ, the inhibitory activity of the compounds for the other isoforms of I3K were measured.

mTOR/GbL/Raptor (mTORC1) = mTOR/GbL/Raptor (mTORC1) (Homo sapiens, UniProt P42345); assay: mTOR/GbL/Raptor (mTORC1) ELISA assay; type: biochemical; conditions: phosphorylation of 4E-BP1; 0.2 nM mTORC1, 10 μM ATP; read-out: IC50 in this assay (mTORC1 ELISA)
Method in brief: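 Human mTORC1 (0.2 nM) phosphorylated 50 nM His-tagged 4E-BP1 with 10 µM ATP in HEPES pH 7.2 containing 10 mM MnCl2, 120 min at ambient temperature. Substrate was captured on Ni-chelate plates; phospho-4E-BP1 was detected by primary antibody and HRP secondary with luminescence.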

Sequence of PI3Kα (P42336 whole entry, species assumed): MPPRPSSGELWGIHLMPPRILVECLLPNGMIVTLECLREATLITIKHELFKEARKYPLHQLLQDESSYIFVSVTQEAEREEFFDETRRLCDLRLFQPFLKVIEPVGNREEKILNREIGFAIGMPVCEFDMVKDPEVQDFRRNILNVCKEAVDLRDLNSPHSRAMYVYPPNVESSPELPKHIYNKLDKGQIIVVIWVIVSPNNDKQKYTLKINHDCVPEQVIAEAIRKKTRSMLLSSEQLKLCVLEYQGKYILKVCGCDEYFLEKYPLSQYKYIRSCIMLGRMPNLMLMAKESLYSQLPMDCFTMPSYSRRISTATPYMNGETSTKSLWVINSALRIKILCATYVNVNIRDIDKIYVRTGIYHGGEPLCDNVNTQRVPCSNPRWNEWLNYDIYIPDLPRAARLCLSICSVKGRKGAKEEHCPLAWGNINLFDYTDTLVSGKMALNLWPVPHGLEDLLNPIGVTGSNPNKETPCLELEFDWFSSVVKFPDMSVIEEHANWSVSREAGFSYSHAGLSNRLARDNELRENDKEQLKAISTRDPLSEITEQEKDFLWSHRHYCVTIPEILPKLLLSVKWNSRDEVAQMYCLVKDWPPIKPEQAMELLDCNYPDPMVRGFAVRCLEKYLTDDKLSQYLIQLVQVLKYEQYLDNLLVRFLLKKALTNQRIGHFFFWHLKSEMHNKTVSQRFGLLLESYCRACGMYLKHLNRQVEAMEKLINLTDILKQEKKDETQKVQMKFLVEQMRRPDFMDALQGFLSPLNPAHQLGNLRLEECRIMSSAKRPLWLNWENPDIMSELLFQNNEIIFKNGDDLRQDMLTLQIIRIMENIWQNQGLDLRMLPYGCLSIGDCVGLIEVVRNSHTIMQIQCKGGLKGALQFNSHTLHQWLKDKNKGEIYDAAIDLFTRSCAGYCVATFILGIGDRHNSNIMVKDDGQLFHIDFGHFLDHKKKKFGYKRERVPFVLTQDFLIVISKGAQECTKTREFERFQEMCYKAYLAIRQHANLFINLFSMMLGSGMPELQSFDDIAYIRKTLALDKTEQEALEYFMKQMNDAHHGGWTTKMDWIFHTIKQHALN
Sequence of PI3Kα (P27986 whole entry partner, species assumed): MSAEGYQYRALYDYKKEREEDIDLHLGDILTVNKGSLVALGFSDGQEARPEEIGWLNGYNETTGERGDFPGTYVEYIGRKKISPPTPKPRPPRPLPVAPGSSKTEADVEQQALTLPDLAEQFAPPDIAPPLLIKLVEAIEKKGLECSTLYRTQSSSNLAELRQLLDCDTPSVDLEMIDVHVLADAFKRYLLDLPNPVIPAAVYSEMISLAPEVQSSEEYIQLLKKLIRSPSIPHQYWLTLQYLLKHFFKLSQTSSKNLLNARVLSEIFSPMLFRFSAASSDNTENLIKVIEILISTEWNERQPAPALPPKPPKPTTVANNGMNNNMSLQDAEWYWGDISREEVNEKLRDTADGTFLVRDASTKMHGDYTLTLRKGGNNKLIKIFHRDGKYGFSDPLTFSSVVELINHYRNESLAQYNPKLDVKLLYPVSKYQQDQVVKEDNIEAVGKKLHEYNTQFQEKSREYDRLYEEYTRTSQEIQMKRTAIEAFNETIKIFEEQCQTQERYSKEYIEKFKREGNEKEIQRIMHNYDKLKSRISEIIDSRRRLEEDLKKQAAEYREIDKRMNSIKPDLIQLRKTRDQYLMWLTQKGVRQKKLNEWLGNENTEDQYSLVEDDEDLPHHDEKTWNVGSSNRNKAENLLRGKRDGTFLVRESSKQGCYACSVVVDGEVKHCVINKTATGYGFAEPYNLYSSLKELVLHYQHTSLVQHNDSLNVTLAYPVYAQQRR

Compound	pIC50 (PI3Kα)	pIC50 (mTOR/GbL/Raptor (mTORC1))
OCc1ncc(-c2ccc(-c3ccc4c(c3)CN(c3ncnc5cccnc35)CCO4)cc2)[nH]1 [Example 212, {5-[4-(4-pyrido[3,2-d]pyrimidin-4-yl-2,3,4,5-tetrahydro-1,4-benzoxazepin-7-yl)phenyl]-1H-imidazol-2-yl}methanol]	≤ 5.70	6.00 to 6.60
CCn1ccc2cc(-c3ccc4c(c3)CN(c3ccnc5ccccc35)CCO4)cnc21 [Example 223, 7-(1-ethyl-1H-pyrrolo[2,3-b]pyridin-5-yl)-4-quinolin-4-yl-2,3,4,5-tetrahydro-1,4-benzoxazepine]	≤ 5.70	≤ 5.70
[H]/N=c1\ncc(-c2ccc3c(c2)CN(c2ncnc4c2CC(C)(C)CC4)CCO3)cn1O [Example 231, (2E)-5-[4-(6,6-dimethyl-5,6,7,8-tetrahydroquinazolin-4-yl)-2,3,4,5-tetrahydro-1,4-benzoxazepin-7-yl]-2-iminopyrimidin-1(2H)-ol]	≤ 5.70	5.70 to 6.00
c1ccc(-c2nc(N3CCOc4ccc(-c5ccc6nc[nH]c6c5)cc4C3)c3ccccc3n2)cc1 [Example 232, 7-(1H-benzimidazol-6-yl)-4-(2-phenylquinazolin-4-yl)-2,3,4,5-tetrahydro-1,4-benzoxazepine]	5.70 to 6.00	≤ 5.70
Cc1nc2ccc(-c3ccc4c(c3)CN(c3ccnc(N)c3)CCO4)cc2[nH]1 [Example 262, 4-[7-(2-methyl-1H-benzimidazol-6-yl)-2,3-dihydro-1,4-benzoxazepin-4(5H)-yl]pyridin-2-amine]	≤ 5.70	≤ 5.70
CCNc1nc2ccc(-c3ccc4c(c3)CN(c3nc(C)nc5cc(OCC)ccc35)CCO4)cc2[nH]1 [Example 288, N-ethyl-6-{4-[7-(ethyloxy)-2-methylquinazolin-4-yl]-2,3,4,5-tetrahydro-1,4-benzoxazepin-7-yl}-1H-benzimidazol-2-amine]	5.70 to 6.00	≤ 5.70
COc1ccc2c(N3CCOc4ccc(-c5ccc6ncsc6c5)cc4C3)nc(C)nc2c1 [Example 294, 7-(1,3-benzothiazol-6-yl)-4-[2-methyl-7-(methyloxy)quinazolin-4-yl]-2,3,4,5-tetrahydro-1,4-benzoxazepine]	5.70 to 6.00	≤ 5.70
COc1cc(-c2ccc3c(c2)CN(c2nc(CN(C)C)nc4c2CC(C)(C)CC4)CCO3)ccc1Cl [Example 326]	5.70 to 6.00	6.00 to 6.60
COc1cccc(-c2ccc3c(c2)CN(c2nc(CN(C)C)nc4c2CC(C)(C)CC4)CCO3)c1 [Example 328, 1-(6,6-dimethyl-4-{7-[3-(methyloxy)phenyl]-2,3-dihydro-1,4-benzoxazepin-4(5H)-yl]-5,6,7,8-tetrahydroquinazolin-2-yl)-N,N-dimethylmethanamine]	5.70 to 6.00	≤ 5.70
COc1ccc(-c2ccc3c(c2)CN(c2nc(CN(C)C)nc4c2CC(C)(C)CC4)CCO3)cc1 [Example 329, 1-(6,6-dimethyl-4-{7-[4-(methyloxy)phenyl]-2,3-dihydro-1,4-benzoxazepin-4(5H)-yl}-5,6,7,8-tetrahydroquinazolin-2-yl)-N,N-dimethylmethanamine]	5.70 to 6.00	≤ 5.70
Cc1nc2ccc(-c3ccc4c(c3)CN(c3cc(C(C)(C)O)nc5c3CC(C)(C)CC5)CCO4)cc2[nH]1 [Example 362]	6.60 to 7.30	6.60 to 7.30
CN(C)Cc1nc2c(c(N3CCOc4ccc(-c5cccc(C(N)=O)c5)cc4C3)n1)CC(C)(C)CC2 [Example 433, 3-(4-{2-[(dimethylamino)methyl]-6,6-dimethyl-5,6,7,8-tetrahydroquinazolin-4-yl}-2,3,4,5-tetrahydro-1,4-benzoxazepin-7-yl)benzamide]	5.70 to 6.00	≤ 5.70
Cc1nc2c(-c3ccc4c(c3)CN(c3ncnc5c3CC(C)(C)CC5)CCO4)cncc2[nH]1 [Example 475, 4-(6,6-dimethyl-5,6,7,8-tetrahydroquinazolin-4-yl)-7-(2-methyl-3H-imidazo[4,5-c]pyridin-7-yl)-2,3,4,5-tetrahydro-1,4-benzoxazepine]	≤ 5.70	≤ 5.70
Cc1c(N2CCOc3ccc(-c4cnc5nc(C6CC6)[nH]c5c4)cc3C2)ncnc1N(C)[C@H](C)c1ccccc1 [Example 535, 6-[7-(2-cyclopropyl-1H-imidazo[4,5-b]pyridin-6-yl)-2,3-dihydro-1,4-benzoxazepin-4(5H)-yl]-N,5-dimethyl-N-[(1R)-1-phenylethyl]pyrimidin-4-amine]	5.70 to 6.00	6.00 to 6.60

Other lines, results leading:

pIC50 (PI3Kα)	pIC50 (mTOR/GbL/Raptor (mTORC1))	Compound
≤ 5.70	6.00 to 6.60	Cc1nc2ncc(-c3ccc4c(c3)CN(c3ncnc5c3ccn5C)CCO4)cc2[nH]1 [Example 557, 7-(2-methyl-1H-imidazo[4,5-b]pyridin-6-yl)-4-(7-methyl-7H-pyrrolo[2,3-d]pyrimidin-4-yl)-2,3,4,5-tetrahydro-1,4-benzoxazepine]
5.70 to 6.00	6.00 to 6.60	Cc1ncc(S(=O)(=O)N2CCOCC2)c(N2CCOc3ccc(-c4cnc5nc(C)[nH]c5c4)cc3C2)n1 [Example 561, 7-(2-methyl-1H-imidazo[4,5-b]pyridin-6-yl)-4-[2-methyl-5-(morpholin-4-ylsulfonyl)pyrimidin-4-yl]-2,3,4,5-tetrahydro-1,4-benzoxazepine]
5.70 to 6.00	6.00 to 6.60	Cc1nc2ncc(-c3ccc4c(c3)CN(c3ncnc5c3C(C(F)(F)F)CCC5)CCO4)cc2[nH]1 (stereo not drawn) [Example 562, 7-(2-methyl-1H-imidazo[4,5-b]pyridin-6-yl)-4-[5-(trifluoromethyl)-5,6,7,8-tetrahydroquinazolin-4-yl]-2,3,4,5-tetrahydro-1,4-benzoxazepine]
5.70 to 6.00	≤ 5.70	CC1(C)CCc2ncnc(N3CCOc4ccc(-c5cnc6c(c5)OCC(=O)N6)cc4C3)c2C1 [Example 572, 7-[4-(6,6-dimethyl-5,6,7,8-tetrahydroquinazolin-4-yl)-2,3,4,5-tetrahydro-1,4-benzoxazepin-7-yl]-2H-pyrido[3,2-b][1,4]oxazin-3(4H)-one]
≤ 5.70	5.70 to 6.00	COC(=O)Nc1cc(-c2ccc3c(c2)CN(c2ncnc4c2CC(C)(C)CC4)CCO3)cnc1Cl [Example 581, methyl {2-chloro-5-[4-(6,6-dimethyl-5,6,7,8-tetrahydroquinazolin-4-yl)-2,3,4,5-tetrahydro-1,4-benzoxazepin-7-yl]pyridin-3-yl}carbamate]
5.70 to 6.00	6.00 to 6.60	Cc1ncc(S(=O)(=O)N(C)C)c(N2CCOc3ccc(-c4cnc5nc(C)[nH]c5c4)cc3C2)n1 [Example 611, N,N,2-trimethyl-4-[7-(2-methyl-1H-imidazo[4,5-b]pyridin-6-yl)-2,3-dihydro-1,4-benzoxazepin-4(5H)-yl]pyrimidine-5-sulfonamide]
5.70 to 6.00	6.00 to 6.60	CC(=O)Nc1cc(-c2ccc3c(c2)CN(c2ncnc4c2CC(C)(C)CC4)CCO3)cnc1Cl [Example 622, N-{2-chloro-5-[4-(6,6-dimethyl-5,6,7,8-tetrahydroquinazolin-4-yl)-2,3,4,5-tetrahydro-1,4-benzoxazepin-7-yl]pyridin-3-yl}acetamide]
≤ 5.70	≤ 5.70	CCNC(=O)c1cccc(-c2ccc3c(c2)CN(c2nc(C)nc4cc(OC)ccc24)CCO3)c1 [Example 638, N-ethyl-3-{4-[2-methyl-7-(methyloxy)quinazolin-4-yl]-2,3,4,5-tetrahydro-1,4-benzoxazepin-7-yl}benzamide]
≤ 5.70	6.00 to 6.60	C[C@H](NC(=O)OCc1ccccc1)c1nc2ncc(-c3ccc4c(c3)CN(c3ncnc5c3CC(C)(C)CC5)CCO4)cc2[nH]1 [Example 647, phenylmethyl [(1S)-1-{6-[4-(6,6-dimethyl-5,6,7,8-tetrahydroquinazolin-4-yl)-2,3,4,5-tetrahydro-1,4-benzoxazepin-7-yl]-1H-imidazo[4,5-b]pyridin-2-yl}ethyl]carbamate]
5.70 to 6.00	6.00 to 6.60	Cc1cc(N2CCOc3ccc(-c4ccc5[nH]cnc5c4)cc3C2)nc(N)n1 [Example 688, 4-[7-(1H-benzimidazol-5-yl)-2,3-dihydro-1,4-benzoxazepin-4(5H)-yl]-6-methylpyrimidin-2-amine]

Source: patent US8648066B2 (Exelixis, Inc., priority 2009, dated 2014)
